Read-outs that look alike come from different tables or passages of the source.
Experiments:
[1] = molecular target: T1, Recombinant STAT3 protein (STAT3 (G127-I722)) (Homo sapiens, UniProt P40763); assay: STAT3 Fluorescence Polarization (FP) Assay; format: binding; details: probe 5-FAM-GpYLPQTV-NH2 2 nM, 45-minute incubation
T1 construct: Recombinant STAT3 protein (STAT3 (G127-I722))
Method in brief: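 Displacement of a fluorescent phosphotyrosine peptide (5-FAM-GpYLPQTV-NH2, 2 nM) from 25 nM recombinant STAT3 G127-I722 was monitored by FP after 45 min at room temperature.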

[2] = molecular target: T2, Recombinant STAT6 protein (STAT6 (W123-T658)) (Homo sapiens, UniProt P42226); assay: STAT6 Fluorescence Polarization (FP) Assay; format: binding; details: probe 5-FAM-Ap[…]-NH2 2 nM, 45-minute incubation
T2 construct: Recombinant STAT6 protein (STAT6 (W123-T658))
T2 sequence (P42226 123-658): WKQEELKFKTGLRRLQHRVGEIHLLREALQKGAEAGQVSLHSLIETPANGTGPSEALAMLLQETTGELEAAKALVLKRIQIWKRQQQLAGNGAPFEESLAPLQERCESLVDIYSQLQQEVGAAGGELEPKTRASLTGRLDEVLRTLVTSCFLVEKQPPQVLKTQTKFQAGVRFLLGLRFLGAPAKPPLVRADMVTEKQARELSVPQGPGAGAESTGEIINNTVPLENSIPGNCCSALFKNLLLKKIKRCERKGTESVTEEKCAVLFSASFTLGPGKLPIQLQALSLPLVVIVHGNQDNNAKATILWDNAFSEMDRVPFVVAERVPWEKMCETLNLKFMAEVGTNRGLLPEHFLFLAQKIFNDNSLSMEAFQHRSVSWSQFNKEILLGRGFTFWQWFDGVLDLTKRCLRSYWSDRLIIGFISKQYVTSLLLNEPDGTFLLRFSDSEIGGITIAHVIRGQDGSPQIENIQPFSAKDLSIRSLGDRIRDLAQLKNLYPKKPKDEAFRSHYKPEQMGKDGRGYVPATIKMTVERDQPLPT
Method in brief: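 Recombinant STAT6 (W123-T658) at 250 nM mixed with 2 nM 5-FAM phosphotyrosine peptide probe in HEPES pH 7.4 buffer with DTT, 1% DMSO final, added to serially diluted compounds. FP (mP) read after 45 min at room temperature; IC50 by nonlinear regression vs log concentration.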

[3] = STAT3 25 nM, read-out: STAT3 (FP assay IC50)
[4] = STAT6 250 nM, read-out: STAT6 (FP assay IC50)
[5] = STAT3 (G127-I722) 25 nM, read-out: STAT3 (FP assay IC50 class)
[6] = STAT6 (W123-T658) 250 nM, read-out: STAT6 (FP assay IC50 class)

T1 sequence (P40763 127-722): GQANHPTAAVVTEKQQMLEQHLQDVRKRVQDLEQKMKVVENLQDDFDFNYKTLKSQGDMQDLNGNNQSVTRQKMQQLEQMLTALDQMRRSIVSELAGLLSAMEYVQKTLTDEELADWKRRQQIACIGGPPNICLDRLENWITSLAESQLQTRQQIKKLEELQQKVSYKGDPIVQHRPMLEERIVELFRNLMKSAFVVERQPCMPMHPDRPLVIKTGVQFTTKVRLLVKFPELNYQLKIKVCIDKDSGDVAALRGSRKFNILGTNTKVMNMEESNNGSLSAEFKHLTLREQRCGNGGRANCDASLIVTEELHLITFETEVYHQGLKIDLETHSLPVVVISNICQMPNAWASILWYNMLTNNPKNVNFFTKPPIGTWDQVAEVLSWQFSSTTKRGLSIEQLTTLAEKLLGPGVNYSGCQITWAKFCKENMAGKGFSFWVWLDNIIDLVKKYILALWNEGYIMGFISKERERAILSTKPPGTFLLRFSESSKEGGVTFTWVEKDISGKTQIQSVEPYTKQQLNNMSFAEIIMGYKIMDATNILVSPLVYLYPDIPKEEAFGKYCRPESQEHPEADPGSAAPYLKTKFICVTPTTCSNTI

Row | Compound | IC50 [1, 3] [µM] | IC50 [2, 4] [µM] | IC50 [1, 5] [µM] | IC50 [2, 6] [µM]
1 | N#C[C@H]1CN(C(=O)[C@@H]2CC[C@@H]3CCCC[C@H](NC(=O)c4cc5cc(C(F)(F)P(=O)(O)O)ccc5s4)C(=O)N32)C[C@@H]1c1ccc2cn[nH]c2c1 (racemic) [Compound 99, ((2-(((3S,6S,10aS)-3-(rel-(trans)-3-cyano-4-(1H-indazol-6-yl)pyrrolidine-1-carbonyl)-5-oxodecahydropyrrolo [1,2-a]azocin-6-yl)carbamoyl)benzo[b]thiophen-5-yl)difluoromethyl) phosphonic acid] | 0.1 to 1 | 0.3 to 3 | – | –
2 | COc1cncc([C@@H]2CN(C(=O)[C@@H]3CC[C@@H]4CCC[C@H](NC(=O)c5cc6cc([C@H](F)P(=O)(O)O)ccc6s5)C(=O)N43)C3(CC3)[C@H]2C#N)c1 (single isomer, unassigned) [Compound 843] | – | – | 1 to 10 | 0.3 to 3
3 | O=C(N[C@H]1CCCC[C@H]2CC[C@@H](C(=O)N3CCC(c4ncncc4F)CC3)N2C1=O)c1cc2cc(C(F)P(=O)(O)O)ccc2s1 (stereo partly drawn) [Compound 588, (fluoro(2-(((3S,6S,10aS)-3-(4-(5-fluoropyrimidin-4-yl)piperidine-1-carbonyl)-5-oxodecahydropyrrolo[1,2-a]azocin-6-yl)carbamoyl)benzo[b]thiophen-5-yl)methyl)phosphonic acid] | – | – | 1 to 10 | 3 to 30
4 | Cn1cc(F)c(C2CN(C(=O)[C@@H]3CC[C@@H]4CCC[C@H](NC(=O)c5cc6cc(C(F)P(=O)(O)O)ccc6s5)C(=O)N43)C2)n1 (stereo partly drawn) [Compound 754, (fluoro(2-(((3S,6S,9aS)-3-(3-(4-fluoro-1-methyl-1H-pyrazol-3-yl)azetidine-1-carbonyl)-5-oxooctahydro-1H-pyrrolo[1,2-a]azepin-6-yl)carbamoyl)benzo [b]thiophen-5-yl)methyl) phosphonic acid] | – | – | 1 to 10 | 3 to 30
5 | O=C(N[C@H]1CCC[C@H]2CC[C@@H](C(=O)N3CC(c4cncnc4N4CCC4)C3)N2C1=O)c1cc2cc([C@@H](F)P(=O)(O)O)ccc2s1 (single isomer, unassigned) [Compound 690] | – | – | < 0.1 | 3 to 30
6 | O=C(N[C@H]1CCCC[C@H]2CC[C@@H](C(=O)N3CC(NCC(F)F)(c4ccccn4)C3)N2C1=O)c1cc2cc(C(F)P(=O)(O)O)ccc2s1 (stereo partly drawn) [Compound 761, ((2-(((3S,6S,10aS)-3-(3-((2,2-difluoroethyl)amino)-3-(pyridin-2-yl)azetidine-1-carbonyl)-5-oxodecahydropyrrolo[1,2-a]azocin-6-yl)carbamoyl)benzo [b]thiophen-5-yl)fluoromethyl) phosphonic acid] | – | – | < 0.1 | 3 to 30
7 | O=C(NC1CCCCC2CCC(C(=O)N3CC(O)C(n4ccnn4)C3)N2C1=O)c1ccc2ccc(C(F)(F)P(=O)(O)O)cc2c1 (mixture of isomers) [Compound 871, (difluoro(7-(((3S,6S,10aS)-3-((rel-trans)-3-hydroxy-4-(1H-1,2,3-triazol-1-yl)pyrrolidine-1-carbonyl)-5-oxodecahydropyrrolo[1,2-a]azocin-6-yl)carbamoyl)naphthalen-2-yl)methyl) phosphonic acid] | – | – | 1 to 10 | 0.3 to 3
8 | O=C(N[C@H]1CCCC[C@H]2CC[C@@H](C(=O)N3CC4(CNS(=O)(=O)C4)C3)N2C1=O)c1cc2cc(C(F)(F)P(=O)(O)O)ccc2s1 [Compound 71, ((2-(((3S,6S,10aS)-3-(6,6-dioxido-6-thia-2,7-diazaspiro[3.4]octane-2-carbonyl)-5-oxodecahydropyrrolo [1,2-a]azocin-6-yl)carbamoyl)benzo[b]thiophen-5-yl)difluoromethyl) phosphonic acid] | 0.1 to 1 | 0.3 to 3 | – | –
9 | C[C@H]1C[C@H]2CC[C@@H](C(=O)N3CC(c4cnccc4F)C3)N2C(=O)[C@@H](NC(=O)c2cc3cc(C(F)P(=O)(O)O)ccc3s2)C1 (stereo partly drawn) [Compound 207, (fluoro(2-(((3S,6S,8R,9aR)-3-(3-(4-fluoropyridin-3-yl)azetidine-1-carbonyl)-8-methyl-5-oxooctahydro-1H-pyrrolo[1,2-a]azepin-6-yl)carbamoyl)benzo[b]thiophen-5-yl)methyl)phosphonic acid] | – | – | < 0.1 | 3 to 30

Further lines, results first:

Row | IC50 [1, 3] [µM] | IC50 [2, 4] [µM] | IC50 [1, 5] [µM] | IC50 [2, 6] [µM] | Compound
10 | – | – | 0.1 to 1 | 3 to 30 | O=C(N[C@H]1CCC[C@H]2CC[C@@H](C(=O)N3CC(c4cnccc4C4CC4)C3)N2C1=O)c1cc2cc(CP(=O)(O)O)ccc2s1 [Compound 517, ((2-(((3S,6S,9aS)-3-(3-(4-cyclopropylpyridin-3-yl)azetidine-1-carbonyl)-5-oxooctahydro-1H-pyrrolo[1,2-a]azepin-6-yl)carbamoyl)benzo[b]thiophen-5-yl)methyl)phosphonic acid]
11 | – | – | 1 to 10 | 0.3 to 3 | O=C(N[C@H]1CCCC[C@H]2CC[C@@H](C(=O)N3C[C@@H](c4cc[nH]c(=O)c4)CC34CC4)N2C1=O)c1ccc2ccc(CP(=O)(O)O)cc2c1 [Compound 883, ((7-(((3S,6S,10aS)-5-oxo-3-((R)-6-(2-oxo-1,2-dihydropyridin-4-yl)-4-azaspiro[2.4]heptane-4-carbonyl)decahydropyrrolo[1,2-a]azocin-6-yl)carbamoyl)naphthalen-2-yl)methyl) phosphonic acid]
12 | – | – | 1 to 10 | 3 to 30 | Cc1c(C#N)cncc1C1CN(C(=O)[C@@H]2CC[C@@H]3CCC[C@H](NC(=O)c4cc5cc(CP(=O)(O)O)ccc5s4)C(=O)N32)C1 [Compound 510, ((2-(((3S,6S,9aS)-3-(3-(5-cyano-4-methylpyridin-3-yl)azetidine-1-carbonyl)-5-oxooctahydro-1H-pyrrolo[1,2-a]azepin-6-yl)carbamoyl)benzo[b]thiophen-5-yl)methyl)phosphonic acid]
13 | – | – | < 0.1 | 3 to 30 | COc1c(C2CN(C(=O)[C@@H]3CC[C@@H]4CCC[C@H](NC(=O)c5cc6cc(C(F)P(=O)(O)O)ccc6s5)C(=O)N43)C2)ccnc1F (stereo partly drawn) [Compound 925, (fluoro(2-(((3S,6S,9aS)-3-(3-(2-fluoro-3-methoxypyridin-4-yl)azetidine-1-carbonyl)-5-oxooctahydro-1H-pyrrolo[1,2-a]azepin-6-yl)carbamoyl)benzo [b]thiophen-5-yl)methyl) phosphonic acid]
14 | – | – | 1 to 10 | 3 to 30 | CCc1ccncc1C1CN(C(=O)[C@@H]2CC[C@@H]3CCC[C@H](NC(=O)c4cn5cc(CP(=O)(O)O)ccc5n4)C(=O)N32)C1 [Compound 575, ((2-(((3S,6S,9aS)-3-(3-(4-ethylpyridin-3-yl)azetidine-1-carbonyl)-5-oxooctahydro-1H-pyrrolo[1,2-a]azepin-6-yl)carbamoyl)imidazo[1,2-a]pyridin-6-yl)methyl)phosphonic acid]
15 | 0.1 to 1 | 0.3 to 3 | – | – | CC(=O)N1C[C@H](NC(=O)[C@@H]2CC[C@@H]3CCCC[C@H](NC(=O)c4cc5cc(C(F)(F)P(=O)(O)O)ccc5s4)C(=O)N32)[C@@H](O)C1 [Compound 116, ((2-(((3S, 6S,10aS)-3-(((3S,4S)-1-acetyl-4-hydroxypyrrolidin-3-yl)carbamoyl)-5-oxodecahydro-pyrrolo [1,2-a]azocin-6-yl)carbamoyl)benzo[b]thiophen-5-yl)difluoromethyl) phosphonic acid]
16 | 1 to 10 | ≤ 0.3 | – | – | N#C[C@@H]1CN(C(=O)[C@@H]2CC[C@@H]3CCCC[C@H](NC(=O)c4cc5cc([C@H](F)P(=O)(O)O)ccc5s4)C(=O)N32)C[C@H]1c1ccccc1 (single isomer, unassigned) [Compound 18, ((2-(((3S,6S,10aS)-3-((3S,4R or 3R,4S)-3-cyano-4-phenylpyrrolidine-1-carbonyl)-5-oxodecahydropyrrolo [1,2-a]azocin-6-yl)carbamoyl)benzo[b]thiophen-5-yl)fluoromethyl) phosphonic acid]
17 | – | – | 0.1 to 1 | 3 to 30 | COC1(c2cncnc2)CN(C(=O)[C@@H]2CC[C@@H]3CCC[C@H](NC(=O)c4cc5cc(C(F)(F)P(=O)(O)O)ccc5s4)C(=O)N32)C1 [Compound 723, (difluoro(2-(((3S,6S,9aS)-3-(3-methoxy-3-(pyrimidin-5-yl)azetidine-1-carbonyl)-5-oxooctahydro-1H-pyrrolo[1,2-a]azepin-6-yl)carbamoyl)benzo [b]thiophen-5-yl)methyl) phosphonic acid]

— patent US20250215029A1 (Recludix Pharma, Inc., priority 2022, published 2025)
